Experimental data: US4260608A, “Maytansinoids, pharmaceutical compositions thereof and methods of use thereof” (Takeda Chemical Industries, Ltd., priority 1978, dated 1981)
In brackets after ≈: the same amount, converted by molar mass. Like-named read-outs stand apart in the source and are kept apart here.

What was measured:
[1] = system: melanoma B-16 tumor cells; assay: Antitumor activity, life span prolongation in mice transplanted intraperitoneally with melanoma B-16; assay type: in vivo; settings: intraperitoneal, once daily for 9 consecutive days
Procedure: Therapeutic tests were carried out in mice according to NCI-protocol 1,300, Cancer Chemother, Reports, Part 3, 1972, Vol. 3, No. 2, in which melanoma B-16 tumor cells had been intraperitoneally transplanted, compound (I) being administered intraperitoneally once daily for 9 consecutive days.

Tetrahymena pyriformis W = assay: Antiprotozoal activity, growth inhibition by serial dilution method; assay type: cell-based
Procedure: Antiprotozoal activity of compound (I) was assayed with Tetrahymena pyriformis W as the test organism and a medium composed of 20 g tryptose-peptone (Difco Co.), 1 g yeast extract, 2 g glucose, 1000 ml distilled water, 10 ml 1 M phosphate buffer (pH 7.0) as the assay medium. The microorganism was incubated at 28° C. for 44 to 48 hours and the growth inhibitory activity of compound (I) was assayed by the serial dilution method.

[2] = Tetrahymena pyriformis W, 28° C., 44 to 48 hours, pH 7.0 medium, serial dilution, read-out: Antiprotozoal activity MIC

COc1cc2cc(c1Cl)N(C)C(=O)CC(OC(=O)[C@H](Cc1ccccc1)N(C)C(C)=O)C1(C)OC1C(C)C1CC(O)(NC(=O)O1)C(OC)C=CC=C(C)C2 (stereo partly shown)
Antitumor activities B-16 (T/C %) ([1]; 25 μg/kg): 211% | Antitumor activities B-16 (T/C %) ([1]; 50 μg/kg): 208% | Antitumor activities B-16 (T/C %) ([1]; 100 μg/kg): 205% | Antitumor activities B-16 (T/C %) ([1]; 200 μg/kg): 95% | MIC (Tetrahymena pyriformis W; [2]): 1 µg/mL (≈ 1.3 µM)

COc1cc2cc(c1Cl)N(C)C(=O)CC(OC(=O)[C@@H](CC(C)C)N(C)C(C)=O)C1(C)OC1C(C)C1CC(O)(NC(=O)O1)C(OC)C=CC=C(C)C2 (stereo partly drawn) [maytansinol 3-(N-acetyl-N-methyl)-D-leucine ester]
MIC (Tetrahymena pyriformis W; Tetrahymena pyriformis, pH 7, read-out: Antiprotozoal activity MIC): 28 µg/mL (≈ 38.1 µM)

COc1cc2cc(c1Cl)N(C)C(=O)CC(OC(=O)[C@H](CC(C)C)N(C)C(C)=O)C1(C)OC1C(C)C1CC(O)(NC(=O)O1)C(OC)C=CC=C(C)C2 (stereo partly drawn) [maytansinol 3-(N-acetyl-N-methyl)-L-leucine ester]
Antitumor activities B-16 (T/C %) ([1]; 25 μg/kg): 171% | Antitumor activities B-16 (T/C %) ([1]; 50 μg/kg): 209% | Antitumor activities B-16 (T/C %) ([1]; 100 μg/kg): 202% | Antitumor activities B-16 (T/C %) ([1]; 200 μg/kg): 65% | MIC (Tetrahymena pyriformis W; [2]): 2 µg/mL (≈ 2.72 µM)

COc1cc2cc(c1Cl)N(C)C(=O)CC(OC(=O)[C@H](C)N(C)C(=O)c1ccccc1)C1(C)OC1C(C)C1CC(O)(NC(=O)O1)C(OC)C=CC=C(C)C2 (stereo partly drawn) [maytansinol 3-(N-benzoyl-N-methyl)-L-alanine ester]
MIC (Tetrahymena pyriformis W; [2]): 2 to 4 µg/mL (≈ 2.65 to 5.3 µM)

COc1cc2cc(c1Cl)N(C)C(=O)CC(OC(=O)[C@H](Cc1ccccc1)NC(=O)OC(C)(C)C)C1(C)OC1C(C)C1CC(O)(NC(=O)O1)C(OC)C=CC=C(C)C2 (stereo partly drawn) [maytansinol 3-(N-t-butyloxycarbonyl)-L-phenylalanine ester]
MIC (Tetrahymena pyriformis W; [2]): 4 µg/mL (≈ 4.92 µM)

COc1cc2cc(c1Cl)N(C)C(=O)CC(OC(=O)[C@@H](C)N(C)C(=O)OC(C)(C)C)C1(C)OC1C(C)C1CC(O)(NC(=O)O1)C(OC)C=CC=C(C)C2 (stereo partly drawn) [maytansinol 3-(N-tert-butoxycarbonyl-N-methyl)-D-alanine ester]
MIC (Tetrahymena pyriformis W; [2]): 8 µg/mL (≈ 10.7 µM)

COc1cc2cc(c1Cl)N(C)C(=O)CC(OC(=O)[C@H](C)N(C)C(=O)OC(C)(C)C)C1(C)OC1C(C)C1CC(O)(NC(=O)O1)C(OC)C=CC=C(C)C2 (stereo partly drawn) [maytansinol 3-(N-tert-butoxycarbonyl-N-methyl)-L-alanine ester]
Antitumor activities B-16 (T/C %) ([1]; 12.5 μg/kg): 163% | Antitumor activities B-16 (T/C %) ([1]; 25 μg/kg): 178% | Antitumor activities B-16 (T/C %) ([1]; 50 μg/kg): 198% | Antitumor activities B-16 (T/C %) ([1]; 100 μg/kg): 193% | MIC (Tetrahymena pyriformis W; [2]): 0.4 to 0.8 µg/mL (≈ 0.533 to 1.07 µM)
